The NIST ThermoML archive (doi:10.1016/j.fluid.2008.03.013)

Settings: Transpiration method

CCC1COC(=O)O1 (stereo unspecified) [1,2-butylene carbonate]
Liquid
Settings	vapor or sublimation pressure [kPa]
288.6 K	0.00186
293.5 K	0.00284
298.5 K	0.00453
303.4 K	0.00649
307.3 K	0.0087
310.3 K	0.01164
313.3 K	0.01439
316.3 K	0.01837
319.3 K	0.02281
322.5 K	0.02805
327.4 K	0.04092
330.3 K	0.04839
333.6 K	0.06415
338.7 K	0.086
343.8 K	0.1159

CC1COC(=O)O1 (stereo unspecified) [4-methyl-1,3-dioxolan-2-one]
Liquid
Settings	vapor or sublimation pressure [kPa]
298.4 K	0.0085
303.3 K	0.01247
308.2 K	0.0181
311.3 K	0.0223
313.2 K	0.02529
318.2 K	0.03723
321.2 K	0.04503
322.7 K	0.05193
324.2 K	0.05893
326.6 K	0.06788
329.6 K	0.08307
332.7 K	0.1019
335.7 K	0.1281
337.7 K	0.1375
338.8 K	0.1525
340.8 K	0.1721
341.8 K	0.1787
344.9 K	0.2178

O=C1OCCO1 [ethylene carbonate]
Settings	vapor or sublimation pressure [kPa]
280.6 K, Crystal	0.00062
286.2 K, Crystal	0.00119
291.3 K, Crystal	0.002
295.5 K, Crystal	0.00325
299.4 K, Crystal	0.00472
303.2 K, Crystal	0.00675
304.4 K, Crystal	0.00785
306.4 K, Crystal	0.00907
308.4 K, Crystal	0.01077
310.3 K, Liquid	0.012
314.4 K, Liquid	0.01615
314.5 K, Liquid	0.01614
317.3 K, Liquid	0.02
320.3 K, Liquid	0.02499
320.4 K, Liquid	0.02475
323.5 K, Liquid	0.0305
324.4 K, Liquid	0.03281
327.4 K, Liquid	0.03939
328.6 K, Liquid	0.04312
331.3 K, Liquid	0.05119
333.6 K, Liquid	0.05962
335.4 K, Liquid	0.06848
338.7 K, Liquid	0.08312
341.4 K, Liquid	0.0978
342.3 K, Liquid	0.1031
343.8 K, Liquid	0.1094
345.2 K, Liquid	0.1213
347.6 K, Liquid	0.1379
349 K, Liquid	0.154
352.4 K, Liquid	0.1869
354 K, Liquid	0.2037
357.5 K, Liquid	0.2473
358.9 K, Liquid	0.2642
360.6 K, Liquid	0.292
363.2 K, Liquid	0.3283
364.1 K, Liquid	0.3486
366.7 K, Liquid	0.4047
369.5 K, Liquid	0.4694

O=C1OCC(CO)O1 (stereo unspecified) [glycerine carbonate]
Liquid
Settings	vapor or sublimation pressure [kPa]
330.2 K	0.00029
333.2 K	0.00039
338.3 K	0.00062
343.2 K	0.00091
348.4 K	0.00144
351.2 K	0.00173
355.5 K	0.0025
359.8 K	0.00368
360.6 K	0.00362
363.7 K	0.00433
366.4 K	0.00542
369.4 K	0.00681
371.8 K	0.00782
373.2 K	0.00886
377.2 K	0.01171
384.5 K	0.02019
387.3 K	0.02392
388 K	0.02471
392.7 K	0.03339
398.5 K	0.04694
